{"source": "patent US11459336B2", "about": "“Pyrazine carbamates and their use as GluN2B receptor modulators” (JANSSEN PHARMACEUTICA NV, priority 2019, dated 2022)"}
{"target": "T1, human GluN1/GluN2B NMDA receptors (Homo sapiens, UniProt Q13224)", "T1 construct": "expressed in transfected cells", "T1 sequence (Q13224 27-1484, other chains not shown)": "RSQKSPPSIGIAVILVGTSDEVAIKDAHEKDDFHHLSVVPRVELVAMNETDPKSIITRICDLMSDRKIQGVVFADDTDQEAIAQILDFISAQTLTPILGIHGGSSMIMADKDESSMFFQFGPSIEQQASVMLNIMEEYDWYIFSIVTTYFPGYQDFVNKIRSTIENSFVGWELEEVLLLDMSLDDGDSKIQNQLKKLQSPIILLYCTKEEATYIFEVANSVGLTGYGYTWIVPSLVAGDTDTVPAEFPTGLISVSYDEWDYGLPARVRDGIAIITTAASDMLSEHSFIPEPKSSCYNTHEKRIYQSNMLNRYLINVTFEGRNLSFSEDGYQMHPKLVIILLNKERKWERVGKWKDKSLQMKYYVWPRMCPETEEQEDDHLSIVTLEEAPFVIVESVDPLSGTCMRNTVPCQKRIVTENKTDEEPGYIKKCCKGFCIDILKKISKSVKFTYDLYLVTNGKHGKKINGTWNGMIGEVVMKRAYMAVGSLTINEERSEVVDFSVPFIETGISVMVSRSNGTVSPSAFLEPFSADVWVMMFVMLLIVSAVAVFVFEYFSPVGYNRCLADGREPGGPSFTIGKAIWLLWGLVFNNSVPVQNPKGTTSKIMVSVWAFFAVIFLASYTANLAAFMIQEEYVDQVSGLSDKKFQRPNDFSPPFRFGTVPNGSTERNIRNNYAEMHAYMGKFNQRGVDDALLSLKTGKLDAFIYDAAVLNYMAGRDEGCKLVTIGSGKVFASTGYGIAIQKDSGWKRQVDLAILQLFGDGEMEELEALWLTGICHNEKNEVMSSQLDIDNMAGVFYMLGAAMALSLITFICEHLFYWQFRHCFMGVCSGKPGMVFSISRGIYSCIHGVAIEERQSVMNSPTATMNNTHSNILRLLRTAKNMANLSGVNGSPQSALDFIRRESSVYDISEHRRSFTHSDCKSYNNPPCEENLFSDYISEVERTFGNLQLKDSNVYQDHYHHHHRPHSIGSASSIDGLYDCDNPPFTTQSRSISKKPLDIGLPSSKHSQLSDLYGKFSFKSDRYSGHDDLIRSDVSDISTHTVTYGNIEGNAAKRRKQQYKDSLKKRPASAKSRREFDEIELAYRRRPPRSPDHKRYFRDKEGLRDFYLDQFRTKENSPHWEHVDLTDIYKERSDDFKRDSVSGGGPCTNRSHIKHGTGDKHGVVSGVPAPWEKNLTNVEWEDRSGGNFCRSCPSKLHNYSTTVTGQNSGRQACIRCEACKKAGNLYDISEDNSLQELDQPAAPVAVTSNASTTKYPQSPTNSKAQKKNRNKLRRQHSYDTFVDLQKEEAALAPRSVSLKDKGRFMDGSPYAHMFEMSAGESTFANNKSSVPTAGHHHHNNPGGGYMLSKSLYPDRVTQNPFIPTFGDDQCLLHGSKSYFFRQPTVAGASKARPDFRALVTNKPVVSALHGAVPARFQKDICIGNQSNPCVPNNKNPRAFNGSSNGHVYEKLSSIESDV", "test": "Calcium flux (FLIPR) assay on cloned human GluN1/GluN2B ion channels expressed in mammalian cells, standard assay", "format": "cell-based", "details": "glutamate ~EC40, 10 μM glycine, stable cell line with Tet-On induced expression", "experimental": "NMDA receptors are ion channels that are highly permeable to Ca^2+ ions, rendering it possible to monitor NMDA receptor function using cell-based calcium flux assay. In this assay, co-agonists glutamate and glycine are added to cells heterologously expressing human GluN1/GluN2B NMDA receptors to initiate cellular Ca^2+ influx. The time course of the changes in intracellular calcium is measured using a fluorescent dye and a FLIPR (Fluorometric Imaging Plate Reader) device.\nTwenty four hours before measurements, the expression of the NMDA receptors in the stable cell line is induced with Tet-On inducible system in the presence of a non-selective NMDA receptor blocker. On the day of the experiment, cell culture media is carefully washed and the cells are loaded with Calcium 5 Dye Kit (Molecular Devices) in dye loading buffer containing 137 mM NaCl, 4 mM KCl, 2 mM CaCl2, 0.5 mM MgCl2 (standard assay) or 1.5 mM MgCl2 (HTS assay), 10 mM HEPES and 5 mM D-glucose; pH 7.4. After 1 h incubation at the room temperature, the dye is washed away with the assay buffer (137 mM NaCl (standard assay) or 150 mM (HTS assay), 4 mM KCl (standard assay) or 3 mM (HTS assay), 2 mM CaCl2, 0.01 mM EDTA, 10 mM HEPES and 5 mM D-glucose; pH 7.4) In the FLIPR TETRA reader, various concentrations of the test compounds are added to the cells for 5 min while fluorescence is monitored to detect potential agonist activity. Next, co-agonists, glutamate and glycine are added for another 5 minutes. The concentration of glutamate corresponding to ˜EC40 (standard assay) or EC40 (HTS assay) is used to maximize the assay's signal window and ability to detect NMDA receptor antagonists and negative allosteric modulators. A saturating concentration (10 μM) of glycine is also present in the assay. A non-selective NMDA receptor antagonist, (+)MK-801 is used as a positive control for antagonist activity. The fluorescent signal in the presence of test compounds is quantified and normalized to the signal defined by the appropriate control wells.", "units": {"IC50": "nM"}}
{"compound": "Cc1ncc(-c2ccc(F)c(OC(F)F)c2)nc1CN1CC2(CC2)OC1=O", "note": "[Example 23, 5-[[6-[3-(Difluoromethoxy)-4-fluoro-phenyl]-3-methyl-pyrazin-2-yl]methyl]-7-oxa-5-azaspiro[2.4]heptan-6-one]", "IC50": 66}
{"compound": "C[C@@H]1COC(=O)N1Cc1cncc(-c2ccc(F)c(OC(F)F)c2)n1", "note": "[Example 18, (4R)-3-[[6-[3-(Difluoromethoxy)-4-fluoro-phenyl]pyrazin-2-yl]methyl]-4-methyl-oxazolidin-2-one]", "IC50": 44}
{"compound": "O=C1OC2(CC2)CN1Cc1cncc(-c2ccc(F)c(OC(F)F)c2)n1", "note": "[Example 16, 5-[[6-[3-(Difluoromethoxy)-4-fluoro-phenyl]pyrazin-2-yl]methyl]-7-oxa-5-azaspiro[2.4]heptan-6-one]", "IC50": 19}
{"compound": "CC1(C)CN(Cc2cncc(-c3cccc(C(C)(F)F)c3)n2)C(=O)O1", "note": "[Example 39, 3-[[6-[3-(1,1-Difluoroethyl)phenyl]pyrazin-2-yl]methyl]-5,5-dimethyl-oxazolidin-2-one]", "IC50": 4510}
{"compound": "Cc1ncc(-c2ccc(F)c(OC(F)F)c2)nc1CN1C(=O)OC[C@H]1C", "note": "[Example 24, (4R)-3-[[6-[3-(Difluoromethoxy)-4-fluoro-phenyl]-3-methyl-pyrazin-2-yl]methyl]-4-methyl-oxazolidin-2-one]", "IC50": 78}
{"compound": "Cc1ncc(-c2ccc(Cl)c(OC(F)F)c2)nc1CN1CCCOC1=O", "note": "[Example 37, 3-[[6-[4-Chloro-3-(difluoromethoxy)phenyl]-3-methyl-pyrazin-2-yl]methyl]-1,3-oxazinan-2-one]", "IC50": 18}
{"compound": "CC(F)(F)c1cccc(-c2cncc(CN3CC4(CC4)OC3=O)n2)c1", "note": "[Example 38, 5-[[6-[3-(1,1-Difluoroethyl)phenyl]pyrazin-2-yl]methyl]-7-oxa-5-azaspiro[2.4]heptan-6-one]", "IC50": 17}
{"compound": "CC(F)(F)c1cccc(-c2cncc(CN3CCCOC3=O)n2)c1", "note": "[Example 42, 3-[[6-[3-(1,1-Difluoroethyl)phenyl]pyrazin-2-yl]methyl]-1,3-oxazinan-2-one]", "IC50": 105}
{"compound": "Cc1ncc(-c2ccc(F)c(OC(F)F)c2)nc1CN1C[C@@H](C)OC1=O", "note": "[Example 26, (5R)-3-[[6-[3-(Difluoromethoxy)-4-fluoro-phenyl]-3-methyl-pyrazin-2-yl]methyl]-5-methyl-oxazolidin-2-one]", "IC50": 52}
{"compound": "O=C1OC2(CC2)CN1Cc1cncc(-c2ccc(Cl)c(OC(F)F)c2)n1", "note": "[Example 29, 5-[[6-[4-Chloro-3-(difluoromethoxy)phenyl]pyrazin-2-yl]methyl]-7-oxa-5-azaspiro[2.4]heptan-6-one]", "IC50": 19}
{"compound": "C[C@@H]1CN(Cc2cncc(-c3cccc(C(C)(F)F)c3)n2)C(=O)O1", "note": "[Example 40, (5R)-3-[[6-[3-(1,1-Difluoroethyl)phenyl]pyrazin-2-yl]methyl]-5-methyl-oxazolidin-2-one]", "IC50": 39}
{"compound": "Cc1ncc(-c2ccc(F)c(C(F)F)c2)nc1CN1C[C@H](C)OC1=O", "note": "[Example 14, (5S)-3-[[6-[3-(Difluoromethyl)-4-fluoro-phenyl]-3-methyl-pyrazin-2-yl]methyl]-5-methyl-oxazolidin-2-one]", "IC50": 50}
{"compound": "CN1CC2(C1)CN(Cc1cncc(-c3ccc(Cl)c(OC(F)F)c3)n1)C(=O)O2", "note": "[Example 68, 6-[[6-[4-Chloro-3-(difluoromethoxy)phenyl]pyrazin-2-yl]methyl]-2-methyl-8-oxa-2,6-diazaspiro[3.4]octan-7-one]", "IC50": 599}
{"compound": "O=C1OC(C(=O)N2CCC2)CN1Cc1cncc(-c2ccc(Cl)c(OC(F)F)c2)n1", "note": "(stereo not drawn) [Example 57, 5-(Azetidine-1-carbonyl)-3-[[6-[4-chloro-3-(difluoromethoxy)phenyl]pyrazin-2-yl]methyl]oxazolidin-2-one]", "IC50": 2000}
{"compound": "C[C@H]1CN(Cc2cncc(-c3ccc(Cl)c(OC(F)F)c3)n2)C(=O)O1", "note": "[Example 32, (5S)-3-[[6-[4-Chloro-3-(difluoromethoxy)phenyl]pyrazin-2-yl]methyl]-5-methyl-oxazolidin-2-one]", "IC50": 20}
{"compound": "Cc1ncc(-c2ccc(F)c(C(F)F)c2)nc1CN1CCC2(CC2)OC1=O", "note": "[Example 53, 6-[[6-[3-(Difluoromethyl)-4-fluoro-phenyl]-3-methyl-pyrazin-2-yl]methyl]-8-oxa-6-azaspiro[2.5]octan-7-one]", "IC50": 102}
{"compound": "C[C@@H]1CN(Cc2cncc(-c3ccc(F)c(OC(F)F)c3)n2)C(=O)O1", "note": "[Example 20, (5R)-3-[[6-[3-(Difluoromethoxy)-4-fluoro-phenyl]pyrazin-2-yl]methyl]-5-methyl-oxazolidin-2-one]", "IC50": 29}
{"compound": "O=C1OCCCN1Cc1cncc(-c2ccc(F)c(C(F)F)c2)n1", "note": "[Example 9, 3-[[6-[3-(Difluoromethyl)-4-fluoro-phenyl]pyrazin-2-yl]methyl]-1,3-oxazinan-2-one]", "IC50": 65}
{"compound": "Cc1ncc(-c2ccc(F)c(C(F)F)c2)nc1CN1C(=O)OC[C@@H]1C", "note": "[Example 12, (4S)-3-[[6-[3-(Difluoromethyl)-4-fluoro-phenyl]-3-methyl-pyrazin-2-yl]methyl]-4-methyl-oxazolidin-2-one]", "IC50": 605}
{"compound": "C[C@H]1CN(Cc2cncc(-c3ccc(F)c(OC(F)F)c3)n2)C(=O)O1", "note": "[Example 21, (5S)-3-[[6-[3-(Difluoromethoxy)-4-fluoro-phenyl]pyrazin-2-yl]methyl]-5-methyl-oxazolidin-2-one]", "IC50": 20}
{"compound": "O=C1OC2(CNC2)CN1Cc1cncc(-c2ccc(Cl)c(OC(F)F)c2)n1", "note": "[Example 67, 6-[[6-[4-Chloro-3-(difluoromethoxy)phenyl]pyrazin-2-yl]methyl]-8-oxa-2,6-diazaspiro[3.4]octan-7-one]", "IC50": 530}
{"compound": "O=C1OC2(CCN1Cc1cncc(-c3ccc(Cl)c(OC(F)F)c3)n1)CC2", "note": "[Example 50, 6-[[6-[4-Chloro-3-(difluoromethoxy)phenyl]pyrazin-2-yl]methyl]-8-oxa-6-azaspiro[2.5]octan-7-one]", "IC50": 49}
{"compound": "C[C@@H]1COC(=O)N1Cc1cncc(-c2ccc(Cl)c(OC(F)F)c2)n1", "note": "[Example 33, (4R)-3-[[6-[4-Chloro-3-(difluoromethoxy)phenyl]pyrazin-2-yl]methyl]-4-methyl-oxazolidin-2-one]", "IC50": 21}
{"compound": "Cc1ncc(-c2cccc(C(C)(F)F)c2)nc1CN1CC(C)(C)OC1=O", "note": "[Example 44, 3-[[6-[3-(1,1-Difluoroethyl)phenyl]-3-methyl-pyrazin-2-yl]methyl]-5,5-dimethyl-oxazolidin-2-one]", "IC50": "> 3000"}
{"compound": "O=C1OC2(CCN1Cc1cncc(-c3ccc(F)c(OC(F)F)c3)n1)CC2", "note": "[Example 49, 6-[[6-[3-(Difluoromethoxy)-4-fluoro-phenyl]pyrazin-2-yl]methyl]-8-oxa-6-azaspiro[2.5]octan-7-one]", "IC50": 48}
{"compound": "C[C@@H]1CN(Cc2cncc(-c3ccc(F)c(C(F)F)c3)n2)C(=O)O1", "note": "[Example 5, (5R)-3-[[6-[3-(Difluoromethyl)-4-fluoro-phenyl]pyrazin-2-yl]methyl]-5-methyl-oxazolidin-2-one]", "IC50": 29}
{"compound": "Cc1ncc(-c2ccc(F)c(OC(F)F)c2)nc1CN1CCCOC1=O", "note": "[Example 28, 3-[[6-[3-(Difluoromethoxy)-4-fluoro-phenyl]-3-methyl-pyrazin-2-yl]methyl]-1,3-oxazinan-2-one]", "IC50": 39}
{"compound": "O=C1OC2(CCN1Cc1cncc(-c3ccc(F)c(C(F)F)c3)n1)CC2", "note": "[Example 52, 6-[[6-[3-(Difluoromethyl)-4-fluoro-phenyl]pyrazin-2-yl]methyl]-8-oxa-6-azaspiro[2.5]octan-7-one]", "IC50": 61}
{"compound": "Cc1ncc(-c2ccc(F)c(OC(F)F)c2)nc1CN1C(=O)OC[C@@H]1C", "note": "[Example 25, (4S)-3-[[6-[3-(Difluoromethoxy)-4-fluoro-phenyl]-3-methyl-pyrazin-2-yl]methyl]-4-methyl-oxazolidin-2-one]", "IC50": 388}
{"compound": "O=C1OCCCN1Cc1cncc(-c2ccc(F)c(OC(F)F)c2)n1", "note": "[Example 22, 3-[[6-[3-(Difluoromethoxy)-4-fluoro-phenyl]pyrazin-2-yl]methyl]-1,3-oxazinan-2-one]", "IC50": 17}
{"compound": "CC1(C)CN(Cc2cncc(-c3ccc(Cl)c(OC(F)F)c3)n2)C(=O)O1", "note": "[Example 30, 3-[[6-[4-Chloro-3-(difluoromethoxy)phenyl]pyrazin-2-yl]methyl]-5,5-dimethyl-oxazolidin-2-one]", "IC50": 669}
{"compound": "C[C@H]1CN(Cc2cncc(-c3ccc(F)c(C(F)F)c3)n2)C(=O)O1", "note": "[Example 6, (5S)-3-[[6-[3-(Difluoromethyl)-4-fluoro-phenyl]pyrazin-2-yl]methyl]-5-methyl-oxazolidin-2-one]", "IC50": 60}
{"compound": "O=C1OCCCN1Cc1cncc(-c2ccc(Cl)c(OC(F)F)c2)n1", "note": "[Example 35, 3-[[6-[4-Chloro-3-(difluoromethoxy)phenyl]pyrazin-2-yl]methyl]-1,3-oxazinan-2-one]", "IC50": 13}
